Laboratory results taken from patent publication EP0431076B1, “PENTACYCLIC TRITERPENOID COMPOUNDS AS TOPOISOMERASE INHIBITORS OR CELL DIFFERENTIATION INDUCERS” (RESEARCH TRIANGLE INSTITUTE, priority 1988, dated 1990).

Biological target: T1, DNA topoisomerase I (Homo sapiens, UniProt P11387)
T1 construct: DNA topoisomerase I was purified to homogeneity from chronic human leukemic cells; from tissue; host or cells: chronic human leukemic cells (endogenous enzyme, purified)
T1 sequence (P11387 1-765): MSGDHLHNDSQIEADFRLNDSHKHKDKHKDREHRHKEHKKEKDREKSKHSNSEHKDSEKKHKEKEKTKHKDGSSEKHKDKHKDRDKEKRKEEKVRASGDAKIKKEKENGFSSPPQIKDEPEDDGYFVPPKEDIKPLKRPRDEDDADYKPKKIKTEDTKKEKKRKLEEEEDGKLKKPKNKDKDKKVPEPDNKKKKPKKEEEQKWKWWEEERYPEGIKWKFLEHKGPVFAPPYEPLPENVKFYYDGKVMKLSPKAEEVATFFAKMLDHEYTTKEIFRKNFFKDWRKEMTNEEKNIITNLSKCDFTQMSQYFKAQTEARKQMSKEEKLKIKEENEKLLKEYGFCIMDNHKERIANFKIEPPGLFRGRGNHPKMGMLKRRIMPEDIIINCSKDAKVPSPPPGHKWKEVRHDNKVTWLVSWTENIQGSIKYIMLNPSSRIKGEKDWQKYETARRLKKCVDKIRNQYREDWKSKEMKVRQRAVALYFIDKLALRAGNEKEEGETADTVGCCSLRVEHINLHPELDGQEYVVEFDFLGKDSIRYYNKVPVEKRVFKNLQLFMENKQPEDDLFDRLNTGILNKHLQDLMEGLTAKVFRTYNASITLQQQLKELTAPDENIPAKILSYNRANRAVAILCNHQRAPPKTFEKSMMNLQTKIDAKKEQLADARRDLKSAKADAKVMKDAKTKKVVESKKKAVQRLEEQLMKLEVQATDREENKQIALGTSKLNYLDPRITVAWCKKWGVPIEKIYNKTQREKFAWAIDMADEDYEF
Assay: Topoisomerase I inhibition, supercoiled pBR 322 DNA relaxation assay
Format: biochemical
Settings: gel analysis, Figure 5
Excerpt: Topoisomerase I inhibitory activity was monitored by using the supercoiled pBR 322 DNA relaxation assay according to a published procedure [Liu et al., Proc. Natl. Acad. Sci., U.S.A., 76, 3487 ([…])].
DNA topoisomerase I was purified to homogeneity from chronic human leukemic cells. Plasmid pBR 322 DNA was purified by phenol deproteinization of cleared lysates followed by CsCl/ethidium isopycnic centrifugation and gel filtration.

potency in topoisomerase I inhibition compared with standard camptothecin (in words)	potency in topoisomerase I inhibition relative to standard camptothecin (fold potency versus camptothecin) [X]	Structure (SMILES)
comparable potency		CC(=O)O[C@@H]1CC[C@@]2(C)[C@@H](CC[C@]3(C)[C@@H]2CC=C2[C@@H]4[C@@H](C)[C@H](C)CC[C@]4(C)CC[C@]23C)[C@@]1(C)C(=O)O [B-1, β-boswellic acid acetate]
	~3	CC(=O)O[C@@H]1CC[C@@]2(C)[C@@H](CC[C@]3(C)[C@@H]2CC=C2[C@@H]4CC(C)(C)CC[C@]4(C)CC[C@]23C)[C@@]1(C)C(=O)O [A-1, α-boswellic acid acetate]
